Laboratory results taken from patent EP4610269A1, “UROKINASE PLASMINOGEN ACTIVATOR SURFACE RECEPTOR (UPAR) LIGANDS FOR DIAGNOSTIC OR THERAPEUTIC USE” (3B Pharmaceuticals GmbH, priority 2024, dated 2025).
Like-named read-outs stand apart in the source and are kept apart here. *1 amine or outer side, *2 acyl side, *3 side chain or, on linkers, in order; H or OH if unused. Where a SMILES comes first, the peptide text is derived from it. Bridges are numbered along the chain shown (N, C = ends). [ ]: non-standard residue; d: D form. The star is where a group is joined. X6 = O=C(O)CN1CCN(CC(=O)O)CCN(CC(=O)NCCCOCCOCCOCCCN*)CCN(CC(=O)O)CC1; Pro(cis-4-F) = O=C(O)[C@@H]1C[C@H](F)CN1; Gly(cPent) = N[C@H](C(=O)O)C1CCCC1; Hyp = O=C(O)[C@@H]1C[C@@H](O)CN1; Pentanoyl(4-Me) = CC(C)CCC(=O)*; Cit = NC(=O)NCCC[C@H](N)C(=O)O; Suc = O=C(CCC(=O)[*:2])[*:1]; Nle = CCCC[C@H](N)C(=O)O; Nva = CCC[C@H](N)C(=O)O; Pentanoyl = CCCCC(=O)*; Bz = O=C(c1ccccc1)*; βAla = NCCC(=O)O

Columns and labels:
[1] = biological target: T1, uPAR-expressing HEC-265 human endometrial adenocarcinoma cells (Homo sapiens, UniProt Q03405); test: Competitive FACS binding assay; conditions: pIC50 category of FACS binding
T1 construct: Cell surface uPAR-expressing HEC-265 human endometrial adenocarcinoma cells; host or cells: HEC-265
Procedure, shortened: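 HEC-265 cells incubated 1 h at 4 °C with 10 nM biotinylated uPAR peptide tracer plus increasing test compound, then stained with APC-streptavidin on ice. Median APC fluorescence by flow cytometry; 4PL fit gives pIC50.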

human uPAR (uPAR-Fc) = biological target: T2, human uPAR (uPAR-Fc) (Homo sapiens, UniProt Q03405); test: Surface plasmon resonance (SPR) assay, single cycle kinetics; format: binding; conditions: pKD category for uPAR SPR activity assay, uPAR-Fc on Protein A-Chip, 25°C, read-out: pKD CAT (converted)
T2 construct: comprising amino acids Leu23-Arg303 according to UniProt entry Q03405.1; purchased R&D Systems 10378-UK-100
Procedure, shortened: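 uPAR-Fc (Leu23-Arg303 extracellular domains, human IgG1 Fc) captured on Protein A chip to ~2000 RU; single-cycle kinetics at 25°C in HEPES running buffer pH 7.4 with 0.1% DMSO. KD from double-referenced sensorgrams fitted to 1:1 Langmuir model, reported as pKD.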

T1 sequence (Q03405 23-335): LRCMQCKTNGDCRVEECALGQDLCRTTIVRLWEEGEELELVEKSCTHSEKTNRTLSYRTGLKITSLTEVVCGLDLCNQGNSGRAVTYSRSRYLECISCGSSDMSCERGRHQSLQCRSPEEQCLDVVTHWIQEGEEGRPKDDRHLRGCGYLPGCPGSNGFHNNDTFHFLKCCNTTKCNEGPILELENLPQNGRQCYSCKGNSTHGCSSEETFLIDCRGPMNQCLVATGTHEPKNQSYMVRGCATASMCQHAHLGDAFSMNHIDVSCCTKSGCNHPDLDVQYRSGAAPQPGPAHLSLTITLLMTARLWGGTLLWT
T2 sequence (Q03405 23-303): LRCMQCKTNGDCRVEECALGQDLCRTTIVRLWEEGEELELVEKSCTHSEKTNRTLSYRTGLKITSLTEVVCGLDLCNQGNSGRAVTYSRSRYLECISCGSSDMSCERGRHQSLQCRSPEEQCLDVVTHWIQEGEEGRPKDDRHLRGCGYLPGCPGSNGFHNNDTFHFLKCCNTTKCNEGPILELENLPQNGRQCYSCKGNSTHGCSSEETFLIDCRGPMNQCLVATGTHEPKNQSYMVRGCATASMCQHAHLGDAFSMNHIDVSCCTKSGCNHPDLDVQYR

Row | Compound | IC50 [1] | Kd (human uPAR (uPAR-Fc)) | Kd (human uPAR (uPAR-Fc); single cycle kinetics)
1 | CCCCC(=O)N[C@H]1CSSC[C@@H](C(N)=O)NC(=O)[C@H](CCC)NC(=O)[C@H]([C@@H](C)CC)NC(=O)[C@H](CC(=O)O)NC(=O)[C@@H]2CCCN2C(=O)[C@H](Cc2ccccc2)NC(=O)[C@H](Cc2ccc(O)cc2)NC(=O)[C@H](CCC(N)=O)NC(=O)[C@H](CCCNC(=N)N)NC1=O [UPAR-344, Pent-[Cys-Arg-Gln-Tyr-Phe-Pro-Asp-Ile-Nva-Cys]-NH2] (Pentanoyl-CRQYFPDI[Nva]C-NH2; disulfide 1-10) | ≤ 10 nM | < 1.58 nM | –
2 | CCCC[C@@H]1NC(=O)[C@H]([C@@H](C)CC)NC(=O)[C@@H](C)NC(=O)[C@@H]2CCCN2C(=O)[C@H](Cc2ccccc2)NC(=O)[C@H](Cc2ccc(O)cc2)NC(=O)[C@H](CCC(N)=O)NC(=O)[C@H](CCCNC(N)=O)NC(=O)[C@@H](NC(=O)CCC(C)C)CSSC[C@@H](C(N)=O)NC1=O [UPAR-345, iHex-[Cys-Cit-Gln-Tyr-Phe-Pro-ala-Ile-Nle-Cys]-NH2] ({Pentanoyl(4-Me)}-C[Cit]QYFP[dA]I[Nle]C-NH2; disulfide 1-10) | ≤ 10 nM | – | 1.58 to 10 nM
3 | CCCC[C@H](NC(=O)CCC(=O)NCCCOCCOCCOCCCNC(=O)CN1CCN(CC(=O)O)CCN(CC(=O)O)CCN(CC(=O)O)CC1)C(=O)N[C@@H](CC(=O)O)C(=O)N[C@@H](CC(C)C)C(=O)N[C@H]1CSSC[C@@H](C(N)=O)NC(=O)[C@H](CC(C)C)NC(=O)[C@H]([C@@H](C)CC)NC(=O)[C@H](C)NC(=O)[C@@H]2CCCN2C(=O)[C@H](Cc2ccccc2)NC(=O)[C@H](Cc2ccc(O)cc2)NC(=O)[C@H](CCSC)NC(=O)[C@H](CCCNC(=N)N)NC1=O [UPAR-347, DOTA-Ttds-Nle-Asp-Leu-[Cys-Arg-Met-Tyr-Phe-Pro-Ala-Ile-Leu-Cys]-NH2] ({X6-Suc}-[Nle]DLCRMYFPAILC-NH2; disulfide 4-13) | ≤ 10 nM | – | < 1.58 nM
4 | CC(C)CCC(=O)N[C@H]1CSSC[C@@H](C(N)=O)NC(=O)[C@H](CC(C)C)NC(=O)[C@H](C2CCCC2)NC(=O)[C@@H](C)NC(=O)[C@@H]2CCCN2C(=O)[C@H](Cc2ccccc2)NC(=O)[C@H](Cc2ccc(O)cc2)NC(=O)[C@H](CCC(N)=O)NC(=O)[C@H](CCCNC(N)=O)NC1=O [UPAR-349, iHex-[Cys-Cit-Gln-Tyr-Phe-Pro-ala-Cpg-Leu-Cys]-NH2] ({Pentanoyl(4-Me)}-C[Cit]QYFP[dA][Gly(cPent)]LC-NH2; disulfide 1-10) | ≤ 10 nM | – | 1.58 to 10 nM
5 | CCCCC(=O)N[C@H]1CSSC[C@@H](C(=O)NCCC(N)=O)NC(=O)[C@H](CCC)NC(=O)[C@H]([C@@H](C)CC)NC(=O)[C@@H]2C[C@@H](O)CN2C(=O)[C@@H]2CCCN2C(=O)[C@H](Cc2ccccc2)NC(=O)[C@H](Cc2ccc(O)cc2)NC(=O)[C@H](CCC(N)=O)NC(=O)[C@H](CCCNC(N)=O)NC1=O [UPAR-353, Pent-[Cys-Cit-Gln-Tyr-Phe-Pro-Hyp-Ile-Nva-Cys]-Bal-NH2] (Pentanoyl-C[Cit]QYFP[Hyp]I[Nva]C[βAla]-NH2; disulfide 1-10) | 12.6 to 31.6 nM | – | 1.58 to 10 nM
6 | CC[C@H](C)[C@@H]1NC(=O)[C@@H](C)NC(=O)[C@@H]2C[C@H](F)CN2C(=O)[C@H](Cc2ccccc2)NC(=O)[C@H](Cc2ccc(O)cc2)NC(=O)[C@H](CCC(N)=O)NC(=O)[C@H](CCCNC(N)=O)NC(=O)[C@@H](NC(=O)CCC(C)C)CSSC[C@@H](C(N)=O)NC(=O)[C@H](CC(C)C)NC1=O [UPAR-354, iHex-[Cys-Cit-Gln-Tyr-Phe-4Cfp-ala-Ile-Leu-Cys]-NH2] ({Pentanoyl(4-Me)}-C[Cit]QYF[Pro(cis-4-F)][dA]ILC-NH2; disulfide 1-10) | ≤ 10 nM | – | < 1.58 nM
7 | CCC[C@@H]1NC(=O)[C@H]([C@@H](C)CC)NC(=O)[C@@H]2C[C@@H](O)CN2C(=O)[C@@H]2CCCN2C(=O)[C@H](Cc2ccccc2)NC(=O)[C@H](Cc2ccc(O)cc2)NC(=O)[C@H](CCC(N)=O)NC(=O)[C@H](CCCNC(=N)N)NC(=O)[C@@H](NC(=O)c2ccccc2)CSSC[C@@H](C(N)=O)NC1=O [UPAR-356, Bz-[Cys-Arg-Gln-Tyr-Phe-Pro-Hyp-Ile-Nva-Cys]-NH2] (Bz-CRQYFP[Hyp]I[Nva]C-NH2; disulfide 1-10) | ≤ 10 nM | – | < 1.58 nM
8 | CC[C@H](C)[C@@H]1NC(=O)[C@@H](CCCNC(=N)N)NC(=O)[C@@H]2CCCN2C(=O)[C@H](Cc2ccccc2)NC(=O)[C@H](Cc2ccc(O)cc2)NC(=O)[C@H](CCC(N)=O)NC(=O)[C@H](CCCNC(N)=O)NC(=O)[C@@H](NC(=O)CCC(C)C)CSSC[C@@H](C(N)=O)NC(=O)[C@H](CC(C)C)NC1=O [UPAR-357, iHex-[Cys-Cit-Gln-Tyr-Phe-Pro-arg-Ile-Leu-Cys]-NH2] ({Pentanoyl(4-Me)}-C[Cit]QYFP[dR]ILC-NH2; disulfide 1-10) | ≤ 10 nM | – | 1.58 to 10 nM
